Results published in patent US9474790B2, “Stable, protracted GLP-1/glucagon receptor co-agonists for medical use” (Novo Nordisk A/S, priority 2013, dated 2016).
Numbered stars: 1 amine (or outer) side, 2 acyl side, 3 side chain; on linkers, the order of the positions; unused ones are H or OH. Square brackets hold non-standard residues; d marks the D form. Side chains are listed from the residue outwards. Peptide text beside a SMILES is read from it. * marks the point of attachment. C18 diacid = O=C(O)CCCCCCCCCCCCCCCCC(=O)*; γGlu = O=C(O)[C@H](CCC(=O)[*:2])N[*:1]; AEEA = NCCOCCOCC(=O)O; Aib = CC(C)(N)C(=O)O

How the values were obtained:
[1] = biological target: T1, human GLP-1 receptor (Homo sapiens, UniProt P43220); test: GLP-1 receptor binding, 125I-GLP-1 displacement SPA on isolated membranes; conditions: displacement of 125I-GLP-1 from membranes; read-out: IC50 GLP-1R
T1 construct: expressed in transfected cells; host or cells: BHK cells (parent BHKTS13), clone FCW467-12A/KZ10-1, with CRE luciferase
T1 sequence (P43220 24-463): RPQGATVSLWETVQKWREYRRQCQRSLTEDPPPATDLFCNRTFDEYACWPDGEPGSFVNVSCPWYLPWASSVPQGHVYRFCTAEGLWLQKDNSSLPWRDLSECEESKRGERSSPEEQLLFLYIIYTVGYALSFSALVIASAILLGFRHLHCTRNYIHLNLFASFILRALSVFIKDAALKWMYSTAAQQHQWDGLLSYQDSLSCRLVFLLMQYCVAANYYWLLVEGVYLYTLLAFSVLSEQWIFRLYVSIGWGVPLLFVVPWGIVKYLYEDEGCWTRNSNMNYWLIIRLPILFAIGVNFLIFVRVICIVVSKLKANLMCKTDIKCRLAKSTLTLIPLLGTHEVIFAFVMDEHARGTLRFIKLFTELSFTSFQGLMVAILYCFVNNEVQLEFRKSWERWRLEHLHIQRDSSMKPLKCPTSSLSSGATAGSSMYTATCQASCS
Summary of the method: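 SPA displacement of 125I-GLP-1(7-36)NH2 from membranes of BHK cells expressing human GLP-1 receptor, with WGA beads, in 50 mM HEPES, 5 mM EGTA, 5 mM MgCl2, 0.005% Tween 20, pH 7.4. Incubated 2 h at 30°C; IC50 by non-linear regression, run at ≤0.001% or 2.0% final serum albumin.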

[2] = biological target: T1, human GLP-1 receptor; test: GLP-1 receptor potency, CRE luciferase reporter gene assay in BHK cells; type: cell-based; conditions: BHK cells expressing human GLP-1 receptor, read-out: EC50 GLP-1R
Summary of the method: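 BHK cells stably expressing human GLP-1 receptor with CRE-luciferase reporter, 5×10EE3 cells/well in phenol red-free DMEM with 10 mM Hepes, 2% ovalbumin, 0.2% Pluronic F-68. Compounds at final 1×10EE-6 to 1×10EE-13 M, 3 h at 37° C; steadylite luminescence; EC50 by four-parameter fit, in pM.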

Structure (SMILES)	IC50 [1]	EC50 [2]
CC(C)C[C@H](NC(=O)[C@H](Cc1ccc(O)cc1)NC(=O)[C@H](CCCNC(=N)N)NC(=O)[C@H](CO)NC(=O)[C@@H](NC(=O)[C@H](CC(=O)O)NC(=O)[C@H](CO)NC(=O)[C@@H](NC(=O)[C@H](Cc1ccccc1)NC(=O)[C@@H](NC(=O)CNC(=O)[C@H](CCC(N)=O)NC(=O)C(C)(C)NC(=O)[C@@H](N)Cc1c[nH]cn1)[C@@H](C)O)[C@@H](C)O)C(C)C)C(=O)N[C@@H](CC(=O)O)C(=O)N[C@@H](C)C(=O)N[C@@H](CCCNC(=N)N)C(=O)N[C@@H](CCCNC(=N)N)C(=O)N[C@@H](C)C(=O)N[C@@H](CCC(N)=O)C(=O)N[C@@H](CC(=O)O)C(=O)N[C@@H](Cc1ccccc1)C(=O)N[C@H](C(=O)N[C@@H](CCC(N)=O)C(=O)N[C@@H](Cc1c[nH]c2ccccc12)C(=O)N[C@@H](CC(C)C)C(=O)N[C@@H](CC(C)C)C(=O)N[C@@H](CCCCNC(=O)COCCOCCNC(=O)COCCOCCNC(=O)CC[C@H](NC(=O)CC[C@H](NC(=O)CC[C@H](NC(=O)CCCCCCCCCCCCCCCCC(=O)O)C(=O)O)C(=O)O)C(=O)O)C(=O)N[C@H](C(N)=O)[C@@H](C)O)C(C)C [Example 72, N^ε28-[2-[2-[2-[(2-[2-[2-[[(4S)-4-carboxy-4-[[(4S)-4-carboxy-4-[[(4S)-4-carboxy-4-(17-carboxyheptadecanoylamino)butanoyl]amino]butanoyl]amino]butanoyl]amino]ethoxy]ethoxy]acetyl]amino]ethoxy]ethoxy]acetyl]-[Aib2,Val10,Arg12,Ala16,Leu27,Lys28]-Glucagon amide] (H-H[Aib]QGTFTSDVSRYLDARRAQDFVQWLLK([AEEA-AEEA-γGlu-γGlu-γGlu-C18 diacid])T-NH2)	0.5 nM	0.003 nM
CC(C)C[C@H](NC(=O)[C@H](CC(=O)O)NC(=O)[C@H](CC(C)C)NC(=O)[C@H](Cc1ccc(O)cc1)NC(=O)[C@H](CCCNC(=N)N)NC(=O)[C@H](CO)NC(=O)[C@@H](NC(=O)[C@H](CC(=O)O)NC(=O)[C@H](CO)NC(=O)[C@@H](NC(=O)[C@H](Cc1ccccc1)NC(=O)[C@@H](NC(=O)CNC(=O)[C@H](CCC(N)=O)NC(=O)C(C)(C)NC(=O)[C@@H](N)Cc1c[nH]cn1)[C@@H](C)O)[C@@H](C)O)C(C)C)C(=O)N[C@@H](CCCNC(=N)N)C(=O)N[C@@H](CCCNC(=N)N)C(=O)N[C@@H](C)C(=O)N[C@@H](CCC(N)=O)C(=O)N[C@@H](CC(=O)O)C(=O)N[C@@H](Cc1ccccc1)C(=O)N[C@H](C(=O)N[C@@H](CCC(N)=O)C(=O)N[C@@H](Cc1c[nH]c2ccccc12)C(=O)N[C@@H](CC(C)C)C(=O)N[C@@H](CC(C)C)C(=O)N[C@@H](CCCCNC(=O)COCCOCCNC(=O)COCCOCCNC(=O)CC[C@H](NC(=O)CC[C@H](NC(=O)CC[C@H](NC(=O)CCCCCCCCCCCCCCCCC(=O)O)C(=O)O)C(=O)O)C(=O)O)C(=O)N[C@H](C(N)=O)[C@@H](C)O)C(C)C [Example 73, N^ε28-[2-[2-[2-[[2-[2-[2-[[(4S)-4-carboxy-4-[[(4S)-4-carboxy-4-[[(4S)-4-carboxy-4-(17-carboxyheptadecanoylamino)butanoyl]amino]butanoyl]amino]butanoyl]amino]ethoxy]ethoxy]acetyl]amino]ethoxy]ethoxy]acetyl]-[Aib2,Val10,Arg12,Leu16,Leu27,Lys28]-Glucagon amide] (H-H[Aib]QGTFTSDVSRYLDLRRAQDFVQWLLK([AEEA-AEEA-γGlu-γGlu-γGlu-C18 diacid])T-NH2)	1.5 nM	0.005 nM
